According to patent US10131652B2, “Pyrimidinyloxy benzene derivatives as herbicides” (E. I. DU PONT DE NEMOURS AND COMPANY, priority 2014, dated 2018):

Assays:
Format in all cases: in vivo
[1] = system: barnyardgrass (Echinochloa crus-galli); experiment: Test B pre-/postemergence plant response
How it was run: (§1)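 Greenhouse pots, loam/sand soil; compound formulated with surfactant in non-phytotoxic solvent. Preemergence soil spray and postemergence spray at 1–2 leaf stage run simultaneously. Visual injury, 0–100, about 10 days post-treatment.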

[2] = system: corn (Zea mays); experiment: Test B pre-/postemergence plant response
How it was run: as §1

[3] = system: giant foxtail (Setaria faberii); experiment: Test B pre-/postemergence plant response
How it was run: as §1

[4] = system: large (Lg) crabgrass (Digitaria sanguinalis); experiment: Test B pre-/postemergence plant response
How it was run: as §1

[5] = system: morningglory (Ipomoea spp.); experiment: Test B pre-/postemergence plant response
How it was run: as §1

[6] = system: pigweed (Amaranthus retroflexus); experiment: Test B pre-/postemergence plant response
How it was run: as §1

[7] = system: velvetleaf (Abutilon theophrasti); experiment: Test B pre-/postemergence plant response
How it was run: as §1

[8] = system: wheat (Triticum aestivum); experiment: Test B pre-/postemergence plant response
How it was run: as §1

[9] = system: barnyardgrass (Echinochloa crus-galli); experiment: Test C flooded paddy test plant response; settings: Flood, 250 g ai/ha; scale of 0 to 100 where 0 is no effect and 100 is complete control; 13 to 15 days
How it was run: (§2)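 Readout is a visual 0–100 score (100 = complete control) versus controls at 13–15 days. Plants at 2-leaf stage, flooded to 3 cm, treated through paddy water.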

[10] = system: ducksalad (Heteranthera limosa); experiment: Test C flooded paddy test plant response; settings: Flood, 250 g ai/ha; scale of 0 to 100 where 0 is no effect and 100 is complete control; 13 to 15 days
How it was run: as §2

[11] = system: rice (Oryza sativa); experiment: Test C flooded paddy test plant response; settings: Flood, 250 g ai/ha; scale of 0 to 100 where 0 is no effect and 100 is complete control; 13 to 15 days
How it was run: as §2

[12] = system: small-flower umbrella sedge (Cyperus difformis); experiment: Test C flooded paddy test plant response; settings: Flood, 250 g ai/ha; scale of 0 to 100 where 0 is no effect and 100 is complete control; 13 to 15 days
How it was run: as §2

[13] = 125 g ai/ha, postemergence, 0 to 100 scale, 0 no effect, 100 complete control
[14] = Postemergence, 500 g ai/ha, 0 to 100 scale (0 no effect, 100 complete control)
[15] = Preemergence, 125 g ai/ha, 0 to 100 scale where 0 is no effect and 100 is complete control
[16] = Preemergence, 500 g ai/ha, 0 to 100 scale where 0 is no effect and 100 is complete control
[17] = Postemergence, 1000 g ai/ha, 0 to 100 scale (0 no effect, 100 complete control)
[18] = Preemergence, 1000 g ai/ha, 0 to 100 scale (0 no effect, 100 complete control)

Structure (SMILES)	Plant response rating, Barnyardgrass [1, 13]	Plant response rating, Barnyardgrass [1, 14]	Plant response rating, Barnyardgrass [1, 15]	Plant response rating, Barnyardgrass [1, 16]	Plant response rating, Corn [2, 13]	Plant response rating, Corn [2, 14]	Plant response rating, Corn [2, 15]	Plant response rating, Corn [2, 16]	Plant response rating, Foxtail, Giant [3, 13]	Plant response rating, Foxtail, Giant [3, 14]	Plant response rating, Foxtail, Giant [3, 15]	Plant response rating, Foxtail, Giant [3, 16]	Plant response rating, Crabgrass, Large [4, 13]	Plant response rating, Crabgrass, Large [4, 14]	Plant response rating, Crabgrass, Large [4, 15]	Plant response rating, Crabgrass, Large [4, 16]	Barnyardgrass plant response rating [9]	Ducksalad plant response rating [10]	Rice plant response rating [11]	Sedge, Umbrella plant response rating [12]	further results
Cn1nc(C(F)(F)F)cc1-c1ccccc1Oc1ncc(Cl)cn1 [Compound 29]	0	0	0	0	0	0	0	0	0	0	0	10	0	10	10	30	0	0	0	0	Plant response rating, Morningglory [5, 13]: 0; Plant response rating, Morningglory [5, 14]: 0; Plant response rating, Morningglory [5, 15]: 0; Plant response rating, Morningglory [5, 16]: 0; Plant response rating, Pigweed [6, 13]: 0; Plant response rating, Pigweed [6, 14]: 10; Plant response rating, Pigweed [6, 15]: 20; Plant response rating, Pigweed [6, 16]: 50; Plant response rating, Velvetleaf [7, 13]: 0; Plant response rating, Velvetleaf [7, 14]: 0; Plant response rating, Velvetleaf [7, 15]: 0; Plant response rating, Velvetleaf [7, 16]: 0; Plant response rating, Wheat [8, 13]: 0; Plant response rating, Wheat [8, 14]: 0; Plant response rating, Wheat [8, 15]: 0; Plant response rating, Wheat [8, 16]: 0
Cn1nc(C(F)(F)F)cc1-c1ccccc1Oc1ncc(Br)cn1 [Compound 30]	0	0	0	0	0	0	0	0	0	10	0	10	0	10	0	20	0	0	0	0	Plant response rating, Morningglory [5, 13]: 0; Plant response rating, Morningglory [5, 14]: 10; Plant response rating, Morningglory [5, 15]: 0; Plant response rating, Morningglory [5, 16]: 0; Plant response rating, Pigweed [6, 13]: 0; Plant response rating, Pigweed [6, 14]: 10; Plant response rating, Pigweed [6, 15]: 0; Plant response rating, Pigweed [6, 16]: 30; Plant response rating, Velvetleaf [7, 13]: 10; Plant response rating, Velvetleaf [7, 14]: 30; Plant response rating, Velvetleaf [7, 15]: 0; Plant response rating, Velvetleaf [7, 16]: 0; Plant response rating, Wheat [8, 13]: 0; Plant response rating, Wheat [8, 14]: 0; Plant response rating, Wheat [8, 15]: 0; Plant response rating, Wheat [8, 16]: 0
Clc1cnc(Oc2ccccc2-c2cc(Cl)cc(Cl)c2)nc1 [Compound 41]	0	20	0	0	0	10	0	0	10	20	0	20	10	20	0	10	0	0	0	0	Plant response rating, Morningglory [5, 13]: 0; Plant response rating, Morningglory [5, 14]: 10; Plant response rating, Morningglory [5, 15]: 0; Plant response rating, Morningglory [5, 16]: 0; Plant response rating, Pigweed [6, 13]: 40; Plant response rating, Pigweed [6, 14]: 70; Plant response rating, Pigweed [6, 15]: 0; Plant response rating, Pigweed [6, 16]: 0; Plant response rating, Velvetleaf [7, 13]: 10; Plant response rating, Velvetleaf [7, 14]: 30; Plant response rating, Velvetleaf [7, 15]: 0; Plant response rating, Velvetleaf [7, 16]: 0; Plant response rating, Wheat [8, 13]: 0; Plant response rating, Wheat [8, 14]: 0; Plant response rating, Wheat [8, 15]: 0; Plant response rating, Wheat [8, 16]: 0
FC(F)(F)c1ccc(-c2ccccc2Oc2ncc(Cl)cn2)cc1 [Compound 43]	0	20	0	20	0	10	0	0	0	20	0	70	0	20	0	30	0	0	0	0	Plant response rating, Morningglory [5, 13]: 0; Plant response rating, Morningglory [5, 14]: 20; Plant response rating, Morningglory [5, 15]: 0; Plant response rating, Morningglory [5, 16]: 10; Plant response rating, Pigweed [6, 13]: 30; Plant response rating, Pigweed [6, 14]: 70; Plant response rating, Pigweed [6, 15]: 0; Plant response rating, Pigweed [6, 16]: 0; Plant response rating, Velvetleaf [7, 13]: 20; Plant response rating, Velvetleaf [7, 14]: 70; Plant response rating, Velvetleaf [7, 15]: 0; Plant response rating, Velvetleaf [7, 16]: 10; Plant response rating, Wheat [8, 13]: 0; Plant response rating, Wheat [8, 14]: 0; Plant response rating, Wheat [8, 15]: 0; Plant response rating, Wheat [8, 16]: 0
Cc1ccc(Oc2ncc(Cl)cn2)c(-c2cccc(OC(F)(F)F)c2)c1 [Compound 44]	10	20	0	10	0	20	0	0	0	10	0	10	10	20	10	70	0	0	0	0	Plant response rating, Morningglory [5, 13]: 20; Plant response rating, Morningglory [5, 14]: 30; Plant response rating, Morningglory [5, 15]: 0; Plant response rating, Morningglory [5, 16]: 0; Plant response rating, Pigweed [6, 13]: 20; Plant response rating, Pigweed [6, 14]: 50; Plant response rating, Pigweed [6, 15]: 0; Plant response rating, Pigweed [6, 16]: 10; Plant response rating, Velvetleaf [7, 13]: 30; Plant response rating, Velvetleaf [7, 14]: 70; Plant response rating, Velvetleaf [7, 15]: 0; Plant response rating, Velvetleaf [7, 16]: 20; Plant response rating, Wheat [8, 13]: 0; Plant response rating, Wheat [8, 14]: 0; Plant response rating, Wheat [8, 15]: 0; Plant response rating, Wheat [8, 16]: 0
Fc1cccc(Oc2ncc(Cl)cn2)c1-c1cccc(OC(F)(F)F)c1 [Compound 46]	–	–	–	–	–	–	–	–	–	–	–	–	–	–	–	–	20	60	35	50	Plant response rating, Barnyardgrass [1, 17]: 90; Plant response rating, Barnyardgrass [1, 18]: 80; Plant response rating, Corn [2, 17]: 20; Plant response rating, Corn [2, 18]: 0; Plant response rating, Foxtail, Giant [3, 17]: 100; Plant response rating, Foxtail, Giant [3, 18]: 100; Plant response rating, Crabgrass, Large [4, 17]: 100; Plant response rating, Crabgrass, Large [4, 18]: 100; Plant response rating, Morningglory [5, 17]: 70; Plant response rating, Morningglory [5, 18]: 10; Plant response rating, Pigweed [6, 17]: 100; Plant response rating, Pigweed [6, 18]: 100; Plant response rating, Velvetleaf [7, 17]: 100; Plant response rating, Velvetleaf [7, 18]: 20; Plant response rating, Wheat [8, 17]: 20; Plant response rating, Wheat [8, 18]: 10
